According to ChEMBL document CHEMBL3785034, “New isosteroidal alkaloids with tracheal relaxant effect from the bulbs of Fritillaria pallidiflora Schrenk” (Bioorg Med Chem Lett, 2016):
Calls of active or inactive are those of the source. The calls are words filed in the database; no cut-off is given here.

What was measured:
Trachea [1] = assay: Inhibition of KCl-induced contraction in Sprague-Dawley rat trachea assessed as maximal diastolic rate at 10^-5 mol/L (reference value: 6 +/- 0.6%); format: functional; design: scale not given: the % may be the effect or the level left
Trachea [2] = assay: Inhibition of Ach-induced contraction in Sprague-Dawley rat trachea; format: functional, tissue-based
Trachea [3] = assay: Inhibition of KCl-induced contraction in Sprague-Dawley rat trachea assessed as maximal diastolic rate at 10^-6 mol/L (reference value: 6 +/- 1.2%); format: functional; design: scale not given: the % may be the effect or the level left
Trachea [4] = assay: Inhibition of KCl-induced contraction in Sprague-Dawley rat trachea assessed as maximal diastolic rate at 10^-7 mol/L (reference value: 7 +/- 0.8%); format: functional; design: scale not given: the % may be the effect or the level left
Trachea [5] = assay: Inhibition of KCl-induced contraction in Sprague-Dawley rat trachea assessed as tracheal tension at 10^-7 mol/L (reference value: 2.16 to 2.59 g); format: functional
Trachea [6] = assay: Inhibition of Ach-induced contraction in Sprague-Dawley rat trachea assessed as maximal diastolic rate at 10^-7 mol/L (reference value: 14.2 +/- 2.3%); format: functional; design: scale not given: the % may be the effect or the level left
Trachea [7] = assay: Inhibition of Ach-induced contraction in Sprague-Dawley rat trachea assessed as tracheal tension at 10^-8 mol/L (reference value: 0.63 to 0.98 g); format: functional
Trachea [8] = assay: Inhibition of Ach-induced contraction in Sprague-Dawley rat trachea assessed as maximal diastolic rate at 10^-8 mol/L (reference value: 14 +/- 1.8%); format: functional; design: scale not given: the % may be the effect or the level left
Trachea [9] = assay: Inhibition of Ach-induced contraction in Sprague-Dawley rat trachea assessed as maximal diastolic rate at 10^-9 mol/L (reference value: 12.7 +/- 2.8%); format: functional; design: scale not given: the % may be the effect or the level left
Trachea [10] = assay: Inhibition of KCl-induced contraction in Sprague-Dawley rat trachea assessed as tracheal tension at 10^-9 mol/L (reference value: 2.16 to 2.59 g); format: functional
Trachea [11] = assay: Inhibition of Ach-induced contraction in Sprague-Dawley rat trachea assessed as tracheal tension at 10^-6 mol/L (reference value: 0.63 to 0.98 g); format: functional
Trachea [12] = assay: Inhibition of KCl-induced contraction in Sprague-Dawley rat trachea assessed as maximal diastolic rate at 10^-9 mol/L (reference value: 5.9 +/- 1.8%); format: functional; design: scale not given: the % may be the effect or the level left
Trachea [13] = assay: Inhibition of KCl-induced contraction in Sprague-Dawley rat trachea assessed as tracheal tension at 10^-5 mol/L (reference value: 2.16 to 2.59 g); format: functional
Trachea [14] = assay: Inhibition of KCl-induced contraction in Sprague-Dawley rat trachea assessed as tracheal tension at 10^-8 mol/L (reference value: 2.16 to 2.59 g); format: functional
Trachea [15] = assay: Inhibition of Ach-induced contraction in Sprague-Dawley rat trachea assessed as maximal diastolic rate at 10^-5 mol/L (reference value: 15.9 +/- 2.6%); format: functional; design: scale not given: the % may be the effect or the level left
Trachea [16] = assay: Inhibition of Ach-induced contraction in Sprague-Dawley rat trachea at 100 umol/L; format: functional, tissue-based
Trachea [17] = assay: Inhibition of Ach-induced contraction in Sprague-Dawley rat trachea assessed as tracheal tension at 10^-7 mol/L (reference value: 0.63 to 0.98 g); format: functional
Trachea [18] = assay: Inhibition of KCl-induced contraction in Sprague-Dawley rat trachea assessed as maximal diastolic rate at 10^-4 mol/L (reference value: 6.6 +/- 0.3%); format: functional; design: scale not given: the % may be the effect or the level left
Trachea [19] = assay: Inhibition of KCl-induced contraction in Sprague-Dawley rat trachea assessed as tracheal tension at 10^-6 mol/L (reference value: 2.16 to 2.59 g); format: functional
Trachea [20] = assay: Inhibition of Ach-induced contraction in Sprague-Dawley rat trachea assessed as tracheal tension at 10^-9 mol/L (reference value: 0.63 to 0.98g); format: functional
Trachea [21] = assay: Inhibition of Ach-induced contraction in Sprague-Dawley rat trachea assessed as tracheal tension at 10^-4 mol/L (reference value: 0.63 to 0.98 g); format: functional
Trachea [22] = assay: Inhibition of KCl-induced contraction in Sprague-Dawley rat trachea assessed as maximal diastolic rate at 10^-8 mol/L (reference value: 7 +/- 0.3%); format: functional; design: scale not given: the % may be the effect or the level left
Trachea [23] = assay: Inhibition of Ach-induced contraction in Sprague-Dawley rat trachea at 1 to 100 umol/L; format: functional, tissue-based; conditions: read-out: pA2 (converted)
Trachea [24] = assay: Inhibition of Ach-induced contraction in Sprague-Dawley rat trachea assessed as tracheal tension at 10^-5 mol/L (reference value: 0.63 to 0.98 g); format: functional
Trachea [25] = assay: Inhibition of Ach-induced contraction in Sprague-Dawley rat trachea assessed as maximal diastolic rate at 10^-6 mol/L (reference value: 15.9 +/- 3%); format: functional; design: scale not given: the % may be the effect or the level left
Trachea [26] = assay: Inhibition of Ach-induced contraction in Sprague-Dawley rat trachea assessed as maximal diastolic rate at 10^-4 mol/L (reference value: 15 +/- 4.2%); format: functional; design: scale not given: the % may be the effect or the level left
Trachea [27] = assay: Inhibition of KCl-induced contraction in Sprague-Dawley rat trachea assessed as tracheal tension at 10^-4 mol/L (reference value: 2.16 to 2.59 g); format: functional

`C[C@@H]1CC[C@H]2N(C1)C[C@H]1[C@@H]3C[C@H]4[C@@H](CC(=O)[C@H]5C[C@@H](O)CC[C@@]54C)[C@@H]3CC[C@@H]1[C@]2(C)O` was tested, and the Activity (Trachea [1]) was 3.3%, the EC50 (Trachea [2]) was 650 nM and the Activity (Trachea [3]) was 3.6%. The Activity (Trachea [4]) was 3.2%, the Activity (Trachea [5]) was 2.49 g and the Activity (Trachea [6]) was 27.5%. For the same compound, the Activity (Trachea [7]) was 0.51 g, the Activity (Trachea [8]) was 20.6% and the Activity (Trachea [9]) was 15.8%. The Activity (Trachea [10]) was 2.43 g, the Activity (Trachea [11]) was 0.46 g and the Activity (Trachea [12]) was 6.2%. It also gave an Activity (Trachea [13]) of 2.49 g, an Activity (Trachea [14]) of 2.46 g and an Activity (Trachea [15]) of 34.3%. The inhibition (Trachea [16]) was “Active”, the Activity (Trachea [17]) was 0.48 g and the Activity (Trachea [18]) was 3.6%. It also gave an Activity (Trachea [19]) of 2.48 g, an Activity (Trachea [20]) of 0.54 g and an Activity (Trachea [21]) of 0.38 g. It also gave an Activity (Trachea [22]) of 5.2%, a Kb (Trachea [23]) of 646 nM and an Activity (Trachea [24]) of 0.43 g. The Activity (Trachea [25]) was 30.4%, the Activity (Trachea [26]) was 39.3% and the Activity (Trachea [27]) was 2.48 g.
